The values below come from patent publication US9284333B2, “Fused pyrroledicarboxamides and their use as pharmaceuticals” (SANOFI, priority 2012, dated 2016).

Structures are written as SMILES.

For this assay, the target named is Human TASK-1 channels (Homo sapiens (Human), UniProt O14649). The assay can be described thus: Determination of the activity on the TASK-1 channel in Xenopus oocytes (two-microelectrode voltage clamp). The settings on record: human TASK-1 expressed in Xenopus oocytes, room temperature; read-out: IC50 value for TASK-1 inhibition. Type of assay: cell-based. A digest of the protocol: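 Current during 500 ms pulses to 40 mV from a −90 mV hold was recorded in oocytes expressing human TASK-1 for two days after cRNA injection. Compounds were added cumulatively to the ND96 bath (pH 7.4, room temperature). IC50 came from dose-response fitting of inhibition relative to pre-compound current.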
Human TASK-1 channels, sequence (O14649 whole entry): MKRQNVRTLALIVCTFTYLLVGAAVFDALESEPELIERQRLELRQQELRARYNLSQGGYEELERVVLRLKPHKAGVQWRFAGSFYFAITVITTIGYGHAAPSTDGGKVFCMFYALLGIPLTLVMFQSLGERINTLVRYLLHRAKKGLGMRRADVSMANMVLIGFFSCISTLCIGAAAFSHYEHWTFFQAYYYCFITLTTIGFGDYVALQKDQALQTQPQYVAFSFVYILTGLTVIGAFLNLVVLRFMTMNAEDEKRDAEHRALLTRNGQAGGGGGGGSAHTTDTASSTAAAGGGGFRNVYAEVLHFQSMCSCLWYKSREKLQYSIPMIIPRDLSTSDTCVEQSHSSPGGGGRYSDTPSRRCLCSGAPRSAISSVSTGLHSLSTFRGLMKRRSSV

With `CC[C@@H](NC(=O)c1cc(C(=O)NCc2ccccc2S(C)(=O)=O)n2c1COCC2)c1ccccc1` [16gx, 3,4-Dihydro-1H-pyrrolo[2,1-c][1,4]oxazine-6,8-dicarboxylic acid 6-(2-methanesulfonyl-benzylamide) 8-[((R)-1-phenyl-propyl)-amide]], the IC50 was 430 nM.
On to `CC[C@@H](NC(=O)c1cc(C(=O)NCc2ccccc2C#N)n2c1COCC2)c1ccccc1` [16gy, 3,4-Dihydro-1H-pyrrolo[2,1-c][1,4]oxazine-6,8-dicarboxylic acid 6-(2-cyano-benzylamide) 8-[((R)-1-phenyl-propyl)-amide]], for which the IC50 stood at 320 nM.
As to `CC[C@@H](NC(=O)c1cc(C(=O)NCc2cc(OC)cc(OC)c2)n2c1COCC2)c1ccccc1` [16gz, 3,4-Dihydro-1H-pyrrolo[2,1-c][1,4]oxazine-6,8-dicarboxylic acid 6-(3,5-dimethoxy-benzylamide) 8-[((R)-1-phenyl-propyl)-amide]], the half-inhibitory concentration (IC50) amounted to 2200 nM.
In the case of `CC[C@@H](NC(=O)c1cc(C(=O)NCc2ncco2)n2c1COCC2)c1ccccc1` [16ha, 3,4-Dihydro-1H-pyrrolo[2,1-c][1,4]oxazine-6,8-dicarboxylic acid 6-[(oxazol-2-ylmethyl)-amide] 8-[((R)-1-phenyl-propyl)-amide]] it was 350 nM.
The result for `CC[C@@H](NC(=O)c1cc(C(=O)NC(C2CC2)C2CC2)n2c1COCC2)c1ccccc1` [16hb, 3,4-Dihydro-1H-pyrrolo[2,1-c][1,4]oxazine-6,8-dicarboxylic acid 6-dicyclopropylmethyl-amide 8-[((R)-1-phenyl-propyl)-amide]] reads 13 nM; that for `CC[C@@H](NC(=O)c1cc(C(=O)Nc2ccc(F)cn2)n2c1COCC2)c1ccccc1` [16hc, 3,4-Dihydro-1H-pyrrolo[2,1-c][1,4]oxazine-6,8-dicarboxylic acid 6-[(5-fluoro-pyridin-2-yl)-amide] 8-[((R)-1-phenyl-propyl)-amide]], 180 nM; that for `CC[C@@H](NC(=O)c1cc(C(=O)NC(C)c2ncccn2)n2c1COCC2)c1ccccc1` (stereo partly drawn) [16hd, 3,4-Dihydro-1H-pyrrolo[2,1-c][1,4]oxazine-6,8-dicarboxyli cacid 8-[((R)-1-phenyl-propyl)-amide] 6-[(1-pyrimidin-2-yl-ethyl)-amide]], 560 nM.
The result for `CC[C@@H](NC(=O)c1cc(C(=O)N(C)CC2CC2)n2c1COCC2)c1ccccc1` [16he, 3,4-Dihydro-1H-pyrrolo[2,1-c][1,4]oxazine-6,8-dicarboxylic acid 6-(cyclopropylmethyl-methyl-amide) 8-[((R)-1-phenyl-propyl)-amide]] reads 490 nM; that for `CC[C@@H](NC(=O)c1cc(C(=O)NCc2ccno2)n2c1COCC2)c1ccccc1` [16hf, 3,4-Dihydro-1H-pyrrolo[2,1-c][1,4]oxazine-6,8-dicarboxylic acid 6-[(isoxazol-5-ylmethyl)-amide] 8-[((R)-1-phenyl-propyl)-amide]], 380 nM; that for `CC[C@@H](NC(=O)c1cc(C(=O)Nc2c(C)noc2C)n2c1COCC2)c1ccccc1` [16hg, 3,4-Dihydro-1H-pyrrolo[2,1-c][1,4]oxazine-6,8-dicarboxylic acid 6-[(3,5-dimethyl-isoxazol-4-yl)-amide] 8-[((R)-1-phenyl-propyl)-amide]], 600 nM.
As for `CC[C@@H](NC(=O)c1cc(C(=O)NC(C)c2ccno2)n2c1COCC2)c1ccccc1` (stereo partly drawn) [16hh, 3,4-Dihydro-1H-pyrrolo[2,1-c][1,4]oxazine-6,8-dicarboxylic acid 6-[(1-isoxazol-5-yl-ethyl)-amide] 8-[((R)-1-phenyl-propyl)-amide]], the half-maximal inhibitory concentration (IC50) is 1000 nM.
The result for `CC[C@@H](NC(=O)c1cc(C(=O)NCC2(O)CC2)n2c1COCC2)c1ccccc1` [16hi, 3,4-Dihydro-1H-pyrrolo[2,1-c][1,4]oxazine-6,8-dicarboxylic acid 6-[(1-hydroxy-cyclopropylmethyl)-amide] 8-[((R)-1-phenyl-propyl)-amide]] reads 1100 nM.

A word on the IC50: it is the concentration needed to halve the response being measured.
